From patent US20050020580A1, “Materials and methods for the prevention or treatment of apoptosis and apoptosis-related diseases and conditions” (priority 2002, published 2005)
Read-outs that look alike come from different tables or passages of the source.

How the values were obtained:
wild type yeast = assay: Yeast clonogenic assay of apoptosis (Vpr peptide or H2O2); assay type: cell-based, Saccharomyces cerevisiae; details: varying doses
[1] = Mouse pharmacokinetic studies: plasma drug concentrations by LC/MS/MS; assay type: in vivo, mice (BALB/C); details: oral
Description: Administration of PI for Experimental Protocols: Six to eight-week-old BALB/C mice (Jackson Labs, Bar Harbor, Me.) were acclimatized for one week before receiving either control vehicle or PI by gavage. PIs were prepared by dissolving 1% weight per volume carboxymethylcellulose and 15 mg/mL Nelfinavir (NFV) oral powder (commercial preparation, Agouron Laboratories, La Jolla, Calif.) in 2% ethanol in distilled water. […] The PI mixture was administered every 8 hours for the indicated number of doses and mice were either sacrificed for pharmacokinetic studies or treated as described. Histopathology was performed by a consulting veterinary pathologist who was blinded as to the nature of experimental treatments.
Immediately preceding the fourth dose and every two hours post gavage until hour 8, plasma drug concentrations were assayed. At both doses, NFV was undetectable (i.e. <2.5 ng/mL) 6 hours after dosing.
Drug levels were assessed in two mice each for several time-points. NFV levels were 8172 and 8914 ng/mL at 1 hour, 5999 and 6006 ng/mL at 2 hours, 5559 and 6048 ng/mL at 3 hours, and 4005 to 4217 ng/mL at 4 hours post-dosing.

Eschericheria coli = assay: Minimal inhibitory concentration (MIC), NCCLS guidelines; assay type: cell-based; details: five clinical isolates
RAW264.7 cells = assay type: cell-based, mouse
PTPC = PTPC proteoliposomes, 4-MUP fluorescence release; assay type: biochemical, rat; details: increasing doses of NFV
Description: Liposome technology: PTPC (1 mg/ml) was separated from rat brains and ANT (0.1 mg/ml) from rat heart mitochondria as previously described (Brenner, C. et al. Methods Enzymol 322, 243-52, 2000; Marzo, I. et al. Biomed Pharmacother 52, 248-51, 1998). Immediately after purification, pure proteins were reconstituted into proteoliposomes (phosphatidylcholin/cholesterol [5:1;w:w] for PTPC and phosphatidylcholin/cardiolipin [45:1; w:w] for ANT) (Belzacq, A. S. et al. Cancer Res 63, 541-6, 2003). […] S. et al. Cancer Res 63, 541-6, 2003). 25 μl of proteoliposomes were incubated with the indicated agents (30 min for NFV and 60 min for ATR and Vpr52-96 at RT). […] The release of 4-MU was measured by spectrofluorimetry (excitation wave length 360 nm; emission wave length 450 nm). The maximum 4-MUP release was determined by adding 5% Triton X-100 to proteoliposomes. The percentage of 4-MUP release induced by treatment of liposomes by ATR was determined as [(ATR−treated liposomes fluorescence−untreated liposomes fluorescence)/(TX-100-treated liposomes fluorescence−untreated liposomes fluorescence)]×100. The maximal fluorescence induced by 800 μM ATR was then identified as 100% 4-MUP release and the fluorescence induced by the treatment of liposomes by another product or another dose was calculated as a percentage of ATR-induced 4-MUP release.

Pseudomonas aeruginosa = assay: Minimal inhibitory concentration (MIC), NCCLS guidelines
Jurkat T cells [2] = assay: Apoptosis by selective PTPC agonists (ATR, STS, PK11195) in Jurkat T cells
Streptococcus bovis = assay: Minimal inhibitory concentration (MIC), NCCLS guidelines; details: Streptococcus equinus
[3] = NFV and RIT concentrations in brain tissues of mice given NFV/RIT suspension; assay type: in vivo; details: 3 doses of NFV/RIT suspension, whole brain removed immediately preceding the fourth dose, two mice; for concentration at 8 h: C57BL/6, mouse, brain, oral
Description: Supernatants were then analyzed as described herein for drug level determination. […] Given the significant drug levels achieved in the brains of these mice, the effects of PI in a mouse model of stroke could be examined.

ANT = target: T1, ANT (Rattus norvegicus, UniProt Q05962); assay: ANT proteoliposomes, 4-MUP fluorescence release; assay type: biochemical; details: p<0.05
T1 construct: ANT (0.1 mg/ml) from rat heart mitochondria; from tissue; host or cells: rat heart mitochondria
T1 sequence (Q05962 1-298): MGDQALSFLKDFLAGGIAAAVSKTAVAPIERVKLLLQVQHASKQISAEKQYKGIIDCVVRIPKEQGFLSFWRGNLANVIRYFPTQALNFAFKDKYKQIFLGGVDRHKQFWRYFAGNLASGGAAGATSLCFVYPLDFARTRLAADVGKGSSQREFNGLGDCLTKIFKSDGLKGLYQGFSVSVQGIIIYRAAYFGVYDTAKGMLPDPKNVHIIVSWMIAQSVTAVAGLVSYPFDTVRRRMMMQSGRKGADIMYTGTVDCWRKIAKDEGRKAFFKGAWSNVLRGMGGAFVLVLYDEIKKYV
Description: Liposome technology: PTPC (1 mg/ml) was separated from rat brains and ANT (0.1 mg/ml) from rat heart mitochondria as previously described (Brenner, C. et al. Methods Enzymol 322, 243-52, 2000; Marzo, I. et al. Biomed Pharmacother 52, 248-51, 1998). Immediately after purification, pure proteins were reconstituted into proteoliposomes (phosphatidylcholin/cholesterol [5:1;w:w] for PTPC and phosphatidylcholin/cardiolipin [45:1; w:w] for ANT) (Belzacq, A. S. et al. Cancer Res 63, 541-6, 2003). […] The release of 4-MU was measured by spectrofluorimetry (excitation wave length 360 nm; emission wave length 450 nm). The maximum 4-MUP release was determined by adding 5% Triton X-100 to proteoliposomes. The percentage of 4-MUP release induced by treatment of liposomes by ATR was determined as [(ATR−treated liposomes fluorescence−untreated liposomes fluorescence)/(TX-100-treated liposomes fluorescence−untreated liposomes fluorescence)]×100. The maximal fluorescence induced by 800 μM ATR was then identified as 100% 4-MUP release and the fluorescence induced by the treatment of liposomes by another product or another dose was calculated as a percentage of ATR-induced 4-MUP release.

Enterococcus = assay: Minimal inhibitory concentration (MIC), NCCLS guidelines
hepatocytes = assay: Fas signaling ex vivo in hepatocytes from mice challenged with IV Jo-2; details: hepatocytes from pretreated mice
Description: Hepatocyte isolation: Four hours after treatment with 7.5 μg of Jo-2 antibody, mice were euthanized with pentobarbital (60 mg/kg, Abbott), and hepatocytes isolated via a two-step collagenase digestion (Seglen, P. O. Methods Cell Biol 13, 29-83, 1976). Following red cell lysis, hepatocytes were enumerated and evaluated for loss of ΔΨm, and caspase 8 and 3 activity. Fluorometric Caspase 8 and 3 Activity.

[4] = co-administration of RIT with NFV in human subjects (Raines et al.); cited from earlier work
Jurkat T cells [5] = assay: Fas signaling in Jurkat T cells stimulated with CH-11 anti-Fas antibody; assay type: cell-based
Description: Annexin-V and Propidium Iodide Staining. […] Western Blot Analysis. […] Fluorometric Caspase 8 and 3 Activity.

Compound: Cc1c(O)cccc1C(=O)N[C@@H](CSc1ccccc1)[C@H](O)CN1C[C@H]2CCCC[C@H]2C[C@H]1C(=O)NC(C)(C)C [NFV, nelfinavir]
- Apoptosis induced by H2O2 (viability) (wild type yeast): inhibited in a dose responsive manner
- Apoptosis induced by Vpr (viability) (wild type yeast): inhibited in a dose responsive manner
- concentration at 6 h ([1]; BALB/C, NFV alone, 125 mg/kg or 250 mg/kg every 8 hours by gavage, BALB/C mice, read-out: NFV plasma drug concentration 6 hours after dosing): < 2.5 ng/mL
- Cmax ([1]; pharmacokinetic studies in mice (data not shown)): ~8 µM
- MIC (Eschericheria coli): > 10 µM
- Apoptosis induced by PA and LT (RAW264.7 cells): significantly inhibited in a dose responsive manner
- ATR induced fluorescence release from PTPC liposomes (PTPC): progressively inhibited
- MIC (Pseudomonas aeruginosa): > 10 µM
- PK11195 induced apoptosis, ΔΨm, cytochrome c release, caspase 9, caspase 3 and PARP cleavage (Jurkat T cells [2]; PBR agonist PK11195, NFV pretreated): not altered
- STS induced apoptosis, ΔΨm, cytochrome c release, caspase 9, caspase 3 and PARP cleavage (Jurkat T cells [2]; VDAC agonist STS, NFV pretreated): not altered
- MIC (Streptococcus bovis): > 10 µM
- Levels of NFV in brain tissue [3]: 986 μg/gm of brain tissue
- concentration at 8 h ([3]; read-out: Levels of NFV in brain tissue): 682000 ng/g
- ATR induced release of fluorescence from ANT liposomes (ANT): inhibited
- Vpr induced release of fluorescence from ANT liposomes (ANT): inhibited
- MIC (Enterococcus): > 10 µM
- ΔΨm loss (hepatocytes): inhibited
- Levels of NFV compared to NFV alone [4]: significantly increased
- Procaspase 8 cleavage and activity, and Bid cleavage vs vehicle control cells (Jurkat T cells [5]; NFV pretreated, CH-11): similar
- ΔΨm (loss of DiOC6 retention), cytochrome c release, caspase 9, and caspase 3 cleavage and activity (Jurkat T cells [5]; NFV pretreatment, CH-11): reduced
- Apoptosis (Annexin positivity) after CH-11 anti-CD95 antibody (Jurkat T cells [5]; NFV pretreatment, varying concentrations): dose-dependent reduction in apoptosis

Compound: CC(C)c1nc(CN(C)C(=O)N[C@H](C(=O)N[C@@H](Cc2ccccc2)C[C@H](O)[C@H](Cc2ccccc2)NC(=O)OCc2cncs2)C(C)C)cs1 [RIT, ritonavir]
- RIT levels in brain tissue [3]: 32 μg/gm of brain tissue
- concentration at 8 h ([3]; RIT levels in brain tissue): 38000 ng/g
